# Measurements published in patent US20260315468A1, “PHARMACEUTICAL COMPOSITION AND USE THEREOF” (SHANGHAI ALLIST PHARMACEUTICAL CO., LTD., priority 2022, published 2026).
# Tests used:
# Test in all cases: Anti-proliferation, CellTiter-Glo Luminescent Cell Viability Assay
# Format in all cases: cell-based
# Ba/F3-EGFR-E709K-G719A = details: 72 h, 3 days
# Description: (§1) The objective of the test example 1 was to evaluate the anti-proliferation effect of Furmonertinib mesilate on 18 cell lines (Ba/F3 EGFR-G719S, Ba/F3 EGFR-S768I, Ba/F3 EGFR-G724S, Ba/F3 EGFR-L718Q, Ba/F3 EGFR-Del19/G724S, Ba/F3 EGFR-E709H, Ba/F3 EGFR-L747S, Ba/F3 EGFR-E709V, Ba/F3 EGFR-L747V, Ba/F3 EGFR-E709-710>D, Ba/F3 EGFR-E709A, Ba/F3 EGFR-Del19/C797S, Ba/F3 EGFR-L858R/C797S, Ba/F3 EGFR-L747S/G719A, Ba/F3-EGFR-L858R-L718V, Ba/F3-EGFR-L858R-L718Q, Ba/F3-EGFR-E709K-G719A, and Ba/F3 EGFR-L861Q) using standard CellTiter-Glo® Luminescent Cell Viability Assay. Further, AZD9291 was used as control compound.
# (§2) Cell culture: Ba/F3 EGFR-G719S, Ba/F3 EGFR-S768I, Ba/F3 EGFR-G724S, Ba/F3 EGFR-L718Q, Ba/F3 EGFR-Del19/G724S, Ba/F3 EGFR-E709H, Ba/F3 EGFR-L747S, Ba/F3 EGFR-E709V, Ba/F3 EGFR-L747V, Ba/F3 EGFR-E709-710>D, Ba/F3 EGFR-E709A, Ba/F3 EGFR-Del19/C797S, Ba/F3 EGFR-L858R/C797S, Ba/F3 EGFR-L747S/G719A, Ba/F3-EGFR-L858R-L718V, Ba/F3-EGFR-L858R-L718Q, Ba/F3-EGFR-E709K-G719A, and Ba/F3 EGFR-L861Q engineered cells were obtained from Kyinno, and maintained at 37° C. with 5% CO2, in the RPMI1640 media supplemented with 10% fetal bovine serum.
# (§3) The cells during the logarithmic growth period were harvested and counted by using blood counting chamber. The cell viability was over 90% which was determined by trypan blue assay. The cell concentration was adjusted with culture medium. 90 μl cell suspensions was added to two 96-well plates to obtain the final cell density of 3000 cells per well. The plates were incubated in humidified incubator at 37° C. with 5% CO2.
# (§4) The solution of tested compounds (Furmonertinib mesilate and AZD9291) was diluted 1000-fold with DMSO. Then, said DMSO solution was diluted 100-fold with PBS (Phosphate Buffered Saline) to obtain 10× working solution. And 10× reference control solution was prepared by Phosphate Buffered Saline (PBS). 10 μl working solution (10×) was dispensed to each well (triplicate for each concentration). (The top concentration was 3160 nM, 3.16-fold dilution and 10 different concentrations. The final concentration of DMSO in culture medium was 0.1% [v/v]). The plate was cultured for 3 days.
# (§5) On Day 3, CellTiter-Glo® reagent (a luciferase ATP bioluminescence detection reagent) was thawed, and then the cell plate was equilibrated at room temperature for approximately 30 minutes. 100 μl CellTiter-Glo® Reagent which was equal to the volume of cell culture medium present in each well was added. The obtained content was mixed for 5 minutes on an orbital shaker to induce cell lysis. The cell plate was incubated at room temperature for 20 minutes to stabilize luminescent signal. The luminescence was recorded by using Multi-mode Microplate Reader.
# (§6) [formula] • blank control: medium control; • vehicle control: culture medium with 0.1% DMSO
# (§7) The graphical curves were fitted using a nonlinear regression model with a sigmoidal dose response.
# Ba/F3 EGFR-L747S = details: Mus musculus, BaF3, 72 h, 3 days
# Description: as §1, §2, §3, §4, §5, §6, §7
# Ba/F3 EGFR-L718Q = details: Mus musculus, BaF3, 72 h, 3 days
# Description: as §1, §2, §3, §4, §5, §6, §7
# Ba/F3 EGFR-L747S/G719A = details: Mus musculus, BaF3, 72 h, 3 days
# Description: as §1, §2, §3, §4, §5, §6, §7
# Ba/F3 EGFR-E709A = details: Mus musculus, BaF3, 72 h, 3 days
# Description: as §1, §2, §3, §4, §5, §6, §7
# Ba/F3-EGFR-L858R-L718Q = details: 72 h, 3 days
# Description: as §1, §2, §3, §4, §5, §6, §7
# Ba/F3 EGFR-Del19/C797S = details: Mus musculus, BaF3, 72 h, 3 days
# Description: as §1, §2, §3, §4, §5, §6, §7
# Ba/F3-EGFR-L858R-L718V = details: 72 h, 3 days
# Description: as §1, §2, §3, §4, §5, §6, §7
# Ba/F3 EGFR-E709H = details: Mus musculus, BaF3, 72 h, 3 days
# Description: as §1, §2, §3, §4, §5, §6, §7
# Ba/F3 EGFR-G719S = details: Mus musculus, BaF3, 72 h, 3 days
# Description: as §1, §2, §3, §4, §5, §6, §7
# Ba/F3 EGFR-E709-710 > D = details: Mus musculus, BaF3, 72 h, 3 days
# Description: as §1, §2, §3, §4, §5, §6, §7
# Ba/F3 EGFR-L858R/C797S = details: Mus musculus, BaF3, 72 h, 3 days
# Description: as §1, §2, §3, §4, §5, §6, §7
# Ba/F3 EGFR-G724S = details: Mus musculus, BaF3, 72 h, 3 days
# Description: as §1, §2, §3, §4, §5, §6, §7
# Ba/F3 EGFR-L861Q = details: Mus musculus, BaF3, 72 h, 3 days
# Description: as §1, §2, §3, §4, §5, §6, §7
# Ba/F3 EGFR-Del19/G724S = details: Mus musculus, BaF3, 72 h, 3 days
# Description: as §1, §2, §3, §4, §5, §6, §7
# Ba/F3 EGFR-L747V = details: Mus musculus, BaF3, 72 h, 3 days
# Description: as §1, §2, §3, §4, §5, §6, §7
# Ba/F3 EGFR-S768I = details: Mus musculus, BaF3, 72 h, 3 days
# Description: as §1, §2, §3, §4, §5, §6, §7
# Ba/F3 EGFR-E709V = details: Mus musculus, BaF3, 72 h, 3 days
# Description: as §1, §2, §3, §4, §5, §6, §7
structure (smiles),measurement,setting,value
"C=CC(=O)Nc1cc(Nc2nccc(-c3cn(C)c4ccccc34)n2)c(OC)cc1N(C)CCN(C)C [AZD9291, reference compound]",IC50,Ba/F3-EGFR-E709K-G719A,164 nM
same,IC50,Ba/F3 EGFR-L747S,37.8 nM
same,IC50,Ba/F3 EGFR-L718Q,> 1000 nM
same,IC50,Ba/F3 EGFR-L747S/G719A,92.1 nM
same,IC50,Ba/F3 EGFR-E709A,64.2 nM
same,IC50,Ba/F3-EGFR-L858R-L718Q,942 nM
same,IC50,Ba/F3 EGFR-Del19/C797S,1980 nM
same,IC50,Ba/F3-EGFR-L858R-L718V,172 nM
same,IC50,Ba/F3 EGFR-E709H,124 nM
same,IC50,Ba/F3 EGFR-G719S,55.4 nM
same,IC50,Ba/F3 EGFR-E709-710 > D,197 nM
same,IC50,Ba/F3 EGFR-L858R/C797S,2190 nM
same,IC50,Ba/F3 EGFR-G724S,73 nM
same,IC50,Ba/F3 EGFR-L861Q,24.6 nM
same,IC50,Ba/F3 EGFR-Del19/G724S,16.3 nM
same,IC50,Ba/F3 EGFR-L747V,53.7 nM
same,IC50,Ba/F3 EGFR-S768I,85.5 nM
same,IC50,Ba/F3 EGFR-E709V,47.6 nM
